Our source for the K1-NPN values is paper PMC5050210, “BdorOBP83a-2 Mediates Responses of the Oriental Fruit Fly to Semiochemicals” (Frontiers in Physiology, 2016).

Common to all, as to assay: direct fluorescence titration
Format in all cases: binding
Holding throughout (conditions): 50 mM Tris-HCl pH 7.4, 25°C; 2 μM protein, 1-16 μM 1-NPN; fluorescent probe

One test deals with T1, BdorOBP83a-1 (Bactrocera dorsalis, UniProt A0A0G2UGI4).
T1 construct: gene OBP83a-1; mature protein without signal peptide
T1 sequence (A0A0G2UGI4 32-155): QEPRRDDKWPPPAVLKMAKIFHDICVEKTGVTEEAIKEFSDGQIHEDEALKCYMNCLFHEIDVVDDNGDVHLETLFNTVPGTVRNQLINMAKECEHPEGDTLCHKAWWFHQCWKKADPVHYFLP

The next test has as its target T2, BdorOBP84a-2 (Bactrocera dorsalis, UniProt A0A0G2UEQ7).
T2 construct: gene OBP84a-2; mature protein without signal peptide
T2 sequence (A0A0G2UEQ7 26-170): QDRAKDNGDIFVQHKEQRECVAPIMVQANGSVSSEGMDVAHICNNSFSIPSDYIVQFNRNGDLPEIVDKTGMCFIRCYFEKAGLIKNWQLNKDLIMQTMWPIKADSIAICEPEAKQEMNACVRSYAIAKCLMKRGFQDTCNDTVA

For another test, the target named is T3, BdorOBP84a-1 (Bactrocera dorsalis, UniProt A0A0G2UGI7).
T3 construct: gene OBP84a-1; mature protein without signal peptide
T3 sequence (A0A0G2UGI7 25-167): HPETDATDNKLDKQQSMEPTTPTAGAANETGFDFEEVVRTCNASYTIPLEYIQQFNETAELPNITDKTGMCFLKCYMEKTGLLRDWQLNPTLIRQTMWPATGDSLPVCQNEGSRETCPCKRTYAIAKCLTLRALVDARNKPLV

The target of the next test is T4, BdorOBP83a-2 (Bactrocera dorsalis, UniProt A0A0G2UEQ3).
T4 construct: gene OBP83a-2; mature protein without signal peptide
T4 sequence (A0A0G2UEQ3 24-148): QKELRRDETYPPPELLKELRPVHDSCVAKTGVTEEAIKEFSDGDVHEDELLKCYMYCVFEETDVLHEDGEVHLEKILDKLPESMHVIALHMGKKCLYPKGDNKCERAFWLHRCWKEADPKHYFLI

In the next test the target is T5, BdorOBP56h (Bactrocera dorsalis, UniProt A0A0G2UMU0).
T5 construct: gene OBP56h; mature protein without signal peptide
T5 sequence (A0A0G2UMU0 20-136): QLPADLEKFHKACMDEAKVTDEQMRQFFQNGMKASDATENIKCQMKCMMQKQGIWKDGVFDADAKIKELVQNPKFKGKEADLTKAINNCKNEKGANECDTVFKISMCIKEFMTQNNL

Another test has as its target T6, BdorCSP3 (Bactrocera dorsalis, UniProt A0A0G2UMR0).
T6 construct: gene CSP3; mature protein without signal peptide
T6 sequence (A0A0G2UMR0 23-156): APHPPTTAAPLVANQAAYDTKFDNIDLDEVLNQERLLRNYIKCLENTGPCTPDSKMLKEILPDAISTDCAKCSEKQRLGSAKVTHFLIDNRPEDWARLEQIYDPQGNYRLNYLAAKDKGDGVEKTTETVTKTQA

Consider `c1ccc(Nc2cccc3ccccc23)cc1` [1-NPN], for which the K1-NPN result on BdorOBP83a-1, on BdorOBP84a-2, at BdorOBP84a-1, on BdorOBP83a-2, on BdorOBP56h and at BdorCSP3 was “exhibited high affinity to the fluorescent probe 1-NPN” in each case.
